Key:
NEP enzyme = molecular target: T1, NEP enzyme (Homo sapiens, UniProt P08473); test: NEP enzyme inhibition assay (fluorogenic peptide substrate); format: biochemical; conditions: values given as lower bounds; * = prodrugs, may not exhibit NEP activity in an in vitro assay; read-out: NEP pIC50 (converted)
T1 construct: purchased R&D Systems, Minneapolis, Minn; 1182-ZN
Description: B. In Vitro Assays for the Quantitation of Inhibitor Potencies (IC50) at Human and Rat NEP, and Human ACE
The inhibitory activities of compounds at human and rat NEP and human ACE were determined using in vitro assays as described below.
Recombinant human NEP and recombinant human ACE were obtained commercially (R&D Systems, Minneapolis, Minn., catalog numbers 1182-ZN and 929-ZN, respectively). The fluorogenic peptide substrate Mca-BK2 (Mca-Arg-Pro-Pro-Gly-Phe-Ser-Ala-Phe-Lys(Dnp)-OH; Johnson et al. (2000) Anal. Biochem. 286: 112-118) was used for the human NEP and ACE assays, and Mca-RRL (Mca-DArg-Arg-Leu-(Dnp)-OH; Medeiros et al. (1997) Braz. J. Med. Biol. Res. 30:1157-1162) was used for the rat NEP assay (both from Anaspec, San Jose, Calif.).
The assays were performed in 384-well white opaque plates at room temperature using the respective fluorogenic peptides at a concentration of 10 μM in assay buffer (50 mM Tris/HCl at 25° C., 100 mM NaCl, 0.01% Tween-20, 1 μM Zn, 0.025% BSA). […] The rat NEP enzyme preparation was used at a concentration that yielded quantitative proteolysis of 3 μM of Mca-RRL within 20 minutes at room temperature.
Test compounds were diluted to 12 concentrations from 10 μM to 20 pM in Assay Buffer. Assays were started by adding 25 μL of enzyme to 12.5 μL of test compound at each of the 12 concentrations. Test compounds were allowed to equilibrate with the enzyme for 10 minutes before 12.5 μL of the fluorogenic substrates were added to initiate the reaction. Reactions were terminated by the addition of 10 μL of 3.6% glacial acetic acid after 20 minutes of incubation.
For sulfhydryl-containing test compounds, the test compounds may be diluted in Assay Buffer containing a 400 μM concentration of tris(2-carboxyethyl)phosphine hydrochloride (Thermo Scientific, Rockford, Ill.) (TCEP). The test compounds are then incubated for 40 minutes at room temperature (to allow for dimer cleavage) before adding the enzyme. Test compounds are then allowed to equilibrate with the enzyme for 20 minutes before adding the fluorogenic substrates. Reactions are terminated as above.
Plates were read on a fluorometer with excitation and emission wavelengths set to 320 nm and 405 nm, respectively. Raw data (relative fluorescence units) were normalized to % activity from the average high readings (no inhibition, 100% enzyme activity) and average low readings (full inhibition, highest inhibitor concentration, 0% enzyme activity) using three standard NEP and ACE inhibitors, respectively. Nonlinear regression of the normalized data was performed using a one site competition model (GraphPad Software, Inc., San Diego, Calif.). Data were reported as pIC50 values.

human AT1 receptor = molecular target: T2, human AT1 receptor (Homo sapiens, UniProt P30556); test: AT1 radioligand binding assay (displacement of [Eu]AngII); conditions: membranes of CHO-K1 cells expressing cloned human AT1 receptor; values given as lower bounds; read-out: AT1 pKi (converted)
T2 construct: expressed in transfected cells; host or cells: CHO-K1
T2 sequence (P30556 1-359): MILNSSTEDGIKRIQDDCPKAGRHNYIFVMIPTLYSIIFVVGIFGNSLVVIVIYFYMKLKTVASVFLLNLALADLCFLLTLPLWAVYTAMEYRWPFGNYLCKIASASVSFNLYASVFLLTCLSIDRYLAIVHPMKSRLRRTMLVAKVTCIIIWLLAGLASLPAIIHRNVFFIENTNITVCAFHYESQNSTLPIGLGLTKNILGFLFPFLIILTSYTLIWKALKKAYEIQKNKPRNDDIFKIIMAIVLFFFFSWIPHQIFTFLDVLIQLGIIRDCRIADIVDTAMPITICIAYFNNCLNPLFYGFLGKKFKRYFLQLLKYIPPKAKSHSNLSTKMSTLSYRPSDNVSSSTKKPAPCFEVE
Description: A. AT1 and AT2 Radioligand Binding Assays
These in vitro assays were used to assess the ability of test compounds to bind to the AT1 and the AT2 receptors.
Membrane Preparation from Cells Expressing Human AT1 or AT2 Receptors
Chinese hamster ovary (CHO-K1) derived cell lines stably expressing the cloned human AT1 or AT2 receptors, respectively, were grown in HAM's-F12 medium supplemented with 10% fetal bovine serum, 10 μg/ml penicillin/streptomycin, and 500 μg/ml geneticin in a 5% CO2 humidified incubator at 37° C. AT2 receptor expressing cells were grown in the additional presence of 100 nM PD123,319 (AT2 antagonist). When cultures reached 80-95% confluence, the cells were washed thoroughly in PBS and lifted with 5 mM EDTA. Cells were pelleted by centrifugation and snap frozen in MeOH-dry ice and stored at −80° C. until further use.
For membrane preparation, cell pellets were resuspended in lysis buffer (25 mM Tris/HCl pH 7.5 at 4° C., 1 mM EDTA, and one tablet of Complete Protease Inhibitor Cocktail Tablets with 2 mM EDTA per 50 mL buffer (Roche cat.#1697498, Roche Molecular Biochemicals, Indianapolis, Ind.)) and homogenized using a tight-fitting Dounce glass homogenizer (10 strokes) on ice. The homogenate was centrifuged at 1000×g, the supernatant was collected and centrifuged at 20,000×g. The final pellet was resuspended in membrane buffer (75 mM Tris/HCl pH 7.5, 12.5 mM MgCl2, 0.3 mM EDTA, 1 mM EGTA, 250 mM sucrose at 4° C.) and homogenized by extrusion through a 20G gauge needle. Protein concentration of the membrane suspension was determined by the method described in Bradford (1976) Anal Biochem. 72:248-54. Membranes were snap frozen in MeOH-dry ice and stored at −80° C. until further use.
Ligand Binding Assay to Determine Compound Affinities for the Human AT1 and AT2 Angiotensin Receptors
Binding assays were performed in 96-well Acrowell filter plates (Pall Inc., cat.#5020) in a total assay volume of 100 μL with 0.2 μg membrane protein for membranes containing the human AT1 receptor, or 2 μg membrane protein for membranes containing the human AT2 receptor in assay buffer (50 mM Tris/HCl pH 7.5 at 20° C., 5 mM MgCl2, 25 μM EDTA, 0.025% BSA). Saturation binding studies for determination of Kd values of the ligand were done using N-terminally Europium-labeled angiotensin-II ([Eu]AngII, H-(Eu-N^1)-Ahx-Asp-Arg-Val-Tyr-Ile-His-Pro-Phe-OH; PerkinElmer, Boston, Mass.) at 8 different concentrations ranging from 0.1 nM to 30 nM. […] Drugs were dissolved to a concentration of 1 mM in DMSO and from there serially diluted into assay buffer. Non-specific binding was determined in the presence of 10 μM unlabeled angiotensin-II. Assays were incubated for 120 minutes in the dark, at room temperature or 37° C., and binding reactions were terminated by rapid filtration through the Acrowell filter plates followed by three washes with 200 μL ice cold wash buffer (50 mM Tris/HCl pH 7.5 at 4° C., 5 mM MgCl2) using a Waters filtration manifold. Plates were tapped dry and incubated with 50 μl DELFIA Enhancement Solution (PerkinElmer cat.#4001-0010) at room temperature for 5 minutes on a shaker. Filter-bound [Eu]AngII was quantitated immediately on a Fusion plate reader (PerkinElmer) using Time Resolved Fluorescence (TRF). Binding data were analyzed by nonlinear regression analysis with the GraphPad Prism Software package (GraphPad Software, Inc., San Diego, Calif.) using the 3-parameter model for one-site competition. The BOTTOM (curve minimum) was fixed to the value for nonspecific binding, as determined in the presence of 10 μM angiotensin II. Ki values for drugs were calculated from observed IC50 values and the Kd value of [Eu]AngII according to the Cheng-Prusoff equation described in Cheng et al. (1973) Biochem Pharmacol. 22 (23):3099-108. Selectivities of test compounds for the AT1 receptor over the AT2 receptor were calculated as the ratio of AT2Ki/AT1Ki. […]

T1 sequence (P08473 52-750 limits assumed): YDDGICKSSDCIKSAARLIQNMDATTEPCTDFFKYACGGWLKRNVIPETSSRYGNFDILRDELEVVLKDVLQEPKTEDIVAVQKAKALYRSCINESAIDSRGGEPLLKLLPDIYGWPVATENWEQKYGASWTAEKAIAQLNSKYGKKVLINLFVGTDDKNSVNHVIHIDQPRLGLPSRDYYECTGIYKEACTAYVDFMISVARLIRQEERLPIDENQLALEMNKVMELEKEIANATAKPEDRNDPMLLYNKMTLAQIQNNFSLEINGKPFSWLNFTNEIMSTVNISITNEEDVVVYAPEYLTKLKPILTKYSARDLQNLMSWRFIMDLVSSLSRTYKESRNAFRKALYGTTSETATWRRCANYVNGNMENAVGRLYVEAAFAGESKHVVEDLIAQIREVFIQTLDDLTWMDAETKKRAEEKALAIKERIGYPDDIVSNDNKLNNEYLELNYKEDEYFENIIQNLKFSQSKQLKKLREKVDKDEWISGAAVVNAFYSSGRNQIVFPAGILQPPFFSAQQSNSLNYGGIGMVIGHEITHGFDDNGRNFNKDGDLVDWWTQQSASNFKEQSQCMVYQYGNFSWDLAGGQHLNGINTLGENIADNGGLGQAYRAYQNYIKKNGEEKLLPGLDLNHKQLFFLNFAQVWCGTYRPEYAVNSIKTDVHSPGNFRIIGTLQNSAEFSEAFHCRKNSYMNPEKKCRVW

Row | IC50 (NEP enzyme) [nM] | Ki (human AT1 receptor) [nM] | Structure (SMILES)
1 | ≤ 10000 | ≤ 10 | CCOc1cc(C(=O)N[C@@H](CC(=O)O)Cc2ccccc2)nn1Cc1ccc(-c2ccccc2S(=O)(=O)NC(C)=O)cc1F [Example 6-24, (R)-3-{[1-(2′-Acetylsulfamoyl-3-fluorobiphenyl-4-ylmethyl)-5-ethoxy-1H-pyrazole-3-carbonyl]amino}-4-phenylbutyric acid]
2 | ≤ 100 | ≤ 100 | CCc1cc(C(=O)N[C@H](Cc2ccccc2)[C@@H](O)C(=O)O)nn1Cc1ccc(-c2ccccc2S(=O)(=O)NC(C)=O)cc1F [Example 6-10, (2R,3R)-3-{[1-(2′-Acetylsulfamoyl-3-fluoro-biphenyl-4-ylmethyl)-5-ethyl-1H-pyrazole-3-carbonyl]amino}-2-hydroxy-4-phenylbutyric acid]
3 | ≤ 100 | ≤ 10 | CCCc1cc(C(=O)N[C@H](Cc2ccccc2)[C@@H](O)C(=O)O)nn1Cc1ccc(-c2ccccc2S(=O)(=O)NC(=O)[C@H](C)O)cc1 [Example 7-13, (2R,3R)-2-Hydroxy-3-({1-[2′-((S)-2-hydroxypropionylsulfamoyl)biphenyl-4-ylmethyl]-5-propyl-1H-pyrazole-3-carbonyl}amino)-4-phenylbutyric acid]
4 | ≤ 10000 | ≤ 10 | CCCc1cc(C(=O)N[C@@H](CC(=O)OC)Cc2ccccc2C)nn1Cc1ccc(-c2ccccc2-c2nnn[nH]2)cc1 [Example 3-29, (R)-3-({5-Propyl-1-[2′-(1H-tetrazol-5-yl)-biphenyl-4-ylmethyl]-1H-pyrazole-3-carbonyl}amino)-4-o-tolyl-butyric acid methyl ester]
5 | ≤ 100 | ≤ 100 | CCCCc1cc(C(=O)N[C@@H](CS)Cc2ccccc2)nn1Cc1ccc(-c2ccccc2C(=O)O)cc1F [Example 9-4, 4′-[3-((R)-1-Benzyl-2-mercaptoethylcarbamoyl)-5-butylpyrazol-1-ylmethyl]-3′-fluorobiphenyl-2-carboxylic acid]
6 | ≤ 100 | ≤ 10 | CCCc1cc(C(=O)N[C@H](Cc2ccccc2)[C@@H](O)C(=O)O)nn1Cc1ccc(-c2ccccc2S(=O)(=O)NC(=O)N(C)C)cc1 [Example 7-20, (2R,3R)-3-(1-((2′-(N-(dimethylcarbamoyl)sulfamoyl)biphenyl-4-yl)methyl)-5-propyl-1H-pyrazole-3-carboxamido)-2-hydroxy-4-phenylbutanoic acid]
7 | ≤ 1000 | ≤ 10 | CCCc1cc(C(=O)N[C@H](Cc2ccccc2)[C@@H](O)C(=O)O)nn1Cc1ccc(-c2ccccc2S(=O)(=O)NC(=O)c2ccccn2)cc1 [Example 7-9, (2R,3R)-2-Hydroxy-4-phenyl-3-[(5-propyl-1-{2′-[(pyridine-2-carbonyl)sulfamoyl]biphenyl-4-ylmethyl}-1H-pyrazole-3-carbonyl)amino]butyric acid]
8 | ≤ 1000 | ≤ 10 | CCCc1cc(C(=O)N[C@@H](CC(=O)O)Cc2ccccc2)nn1Cc1ccc(-c2ccccc2-n2nn[nH]c2=O)cc1 [Example 16-4, (R)-3-({1-[2′-(5-Oxo-4,5-dihydrotetrazol-1-yl)biphenyl-4-ylmethyl]-5-propyl-1H-pyrazole-3-carbonyl}amino)-4-phenylbutyric acid]
9 | ≤ 100 | ≤ 10 | CCCc1cc(C(=O)N[C@@H](Cc2ccccc2)CN(O)C=O)nn1Cc1ccc(-c2ccccc2S(=O)(=O)NC(C)=O)cc1 [Example 6-22, 1-(2′-Acetylsulfamoylbiphenyl-4-ylmethyl)-5-propyl-1H-pyrazole-3-carboxylic acid [(S)-1-benzyl-2-(formylhydroxyamino)ethyl]amide]
10 | ≤ 1000 | ≤ 10 | CCCc1cc(C(=O)N[C@@H](CC(=O)O)Cc2ccccc2Cl)nn1Cc1ccc(-c2ccccc2S(=O)(=O)NC(=O)COC)cc1 [Example 7-18, (R)-4-(2-Chlorophenyl)-3-({1-[2′-(2-methoxyacetylsulfamoyl)biphenyl-4-ylmethyl]-5-propyl-1H-pyrazole-3-carbonyl}amino)butyric acid]
11 | ≤ 1000 | ≤ 100 | CCOc1cc(C(=O)N[C@H](Cc2ccccc2)[C@@H](O)C(=O)O)nn1Cc1ccc(-c2ccccc2-c2nnn[nH]2)cc1 [Example 3-9, (2R,3R)-3-({5-Ethoxy-1-[2′-(1H-tetrazol-5-yl)biphenyl-4-ylmethyl]-1H-pyrazole-3-carbonyl}amino)-2-hydroxy-4-phenylbutyric acid]
12 | ≤ 1000 | ≤ 10 | CCCc1cc(C(=O)N[C@H](Cc2ccccc2)[C@@H](O)C(=O)O)nn1Cc1ccc(-c2ccccc2S(=O)(=O)NC(=O)OCC)cc1 [Example 7-7, (2R,3R)-3-(1-((2′-(N-(ethoxycarbonyl)sulfamoyl)biphenyl-4-yl)methyl)-5-propyl-1H-pyrazole-3-carboxamido)-2-hydroxy-4-phenylbutanoic acid]

— US8350027B2, “Dual-acting pyrazole antihypertensive agents” (Theravance, Inc., priority 2009, dated 2013)
